Values joined by “and” are separate entries in the source; they are usually repeats but may differ in a detail not shown here. Equal entries are not always repeated.
Experiments:
[1] = target: T1, mutEGFR (D770_N771insNPG, T790) (Homo sapiens, UniProt P00533, INS770NPG/T790M); test: mutEGFR (D770_N771insNPG, T790) kinase assay; assay type: biochemical; settings: Table 2a, D770_N771insNPG
T1 construct: exact insNPG construct not described; in-house EGFR proteins were N-terminal GST fusions from baculovirus/insect cells (borders R669-A1210 given only for WT, insSVD, insASV)
Source text: The different EGFR proteins used in the biochemical kinase activity inhibition assays were generated inhouse by expression in insect cells using Baculo Virus system and subsequent purification as described in the following paragraphs.
The cDNAs encoding the various protein sequences from human EGFR human (P00533) were optimized for expression in eukaryotic cells and synthesized by the GeneArt Technology at Life Technologies.

BA/F3 (insSVD) cells = test: Ba/F3-EGFR-insSVD cell survival assay (Cell Titer-Glo); assay type: cell-based; settings: Mus musculus, BaF3, 48 h, Table 3a, cell survival, Cell Titer-Glo, with 10 ng/ml EGF, without IL-3
Outline: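 CellTiter-Glo luminescence read after 48 h compound exposure at 37° C. Cells: IL-3-independent Ba/F3 lines transduced with EGFR-insSVD or EGFR-insSVD T790M, maintained on 10 ng/ml EGF and seeded at 4000 per well.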

[2] = target: T2, mutEGFR (D770_N771insSVD) (Homo sapiens, UniProt P00533, DUP768-770); test: Exon20-Mutant-EGFR (D770_N771insSVD) kinase assay (TR-FRET); assay type: biochemical; settings: mutEGFR (D770_N771insSVD) kinase assay IC50, Table 2a; D770_N771insSVD; 2 mM ATP
T2 construct: GST-EGFR #3 (SVD between D770 and N771); made in house; host or cells: Sf9 insect cells (baculovirus)
T2 sequence (P00533 with tags, fused parts or gaps DUP768-770): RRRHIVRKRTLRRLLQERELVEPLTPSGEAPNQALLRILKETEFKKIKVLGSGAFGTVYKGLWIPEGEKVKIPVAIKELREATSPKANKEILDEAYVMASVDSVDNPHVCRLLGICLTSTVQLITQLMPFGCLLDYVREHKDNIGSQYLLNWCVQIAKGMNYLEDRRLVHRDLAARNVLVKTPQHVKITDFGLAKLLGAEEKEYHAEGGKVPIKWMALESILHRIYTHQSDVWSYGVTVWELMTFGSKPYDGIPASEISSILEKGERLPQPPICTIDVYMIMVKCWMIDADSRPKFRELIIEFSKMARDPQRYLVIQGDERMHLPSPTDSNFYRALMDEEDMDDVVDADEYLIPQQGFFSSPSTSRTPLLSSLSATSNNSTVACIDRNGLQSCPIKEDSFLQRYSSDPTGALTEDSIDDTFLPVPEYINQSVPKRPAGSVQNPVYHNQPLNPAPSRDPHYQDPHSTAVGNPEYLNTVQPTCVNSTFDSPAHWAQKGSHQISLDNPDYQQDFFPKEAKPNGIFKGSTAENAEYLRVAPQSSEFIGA

T1 sequence (P00533 with tags, fused parts or gaps INS770NPG/T790M limits assumed): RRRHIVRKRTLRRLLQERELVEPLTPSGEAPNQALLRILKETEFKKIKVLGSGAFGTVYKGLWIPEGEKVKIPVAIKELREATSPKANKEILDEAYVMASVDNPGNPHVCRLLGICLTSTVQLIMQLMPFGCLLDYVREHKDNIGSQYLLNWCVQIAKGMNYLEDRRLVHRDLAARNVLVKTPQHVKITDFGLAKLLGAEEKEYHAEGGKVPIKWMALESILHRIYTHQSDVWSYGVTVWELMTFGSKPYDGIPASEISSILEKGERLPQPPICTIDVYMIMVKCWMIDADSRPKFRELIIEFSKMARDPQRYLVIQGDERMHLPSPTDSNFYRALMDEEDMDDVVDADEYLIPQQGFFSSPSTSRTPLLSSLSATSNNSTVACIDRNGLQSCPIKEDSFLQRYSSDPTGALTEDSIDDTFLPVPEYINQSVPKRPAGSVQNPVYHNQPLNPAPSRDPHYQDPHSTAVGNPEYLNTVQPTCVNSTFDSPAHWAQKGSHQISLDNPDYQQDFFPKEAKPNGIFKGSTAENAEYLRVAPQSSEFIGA

Compound	IC50 [1]	IC50 (BA/F3 (insSVD) cells)	IC50 [2]
C=CC(=O)N1Cc2c(-c3ccnc4[nH]cc(C)c34)c(-c3ccc(C(F)(F)F)cc3)nn2C[C@H]1C [Example 260, 1-[(6R)-6-methyl-3-(3-methyl-1H-pyrrolo[2,3-b]pyridin-4-yl)-2-[4-(trifluoromethyl)phenyl]-6,7-dihydropyrazolo[1,5-a]pyrazin-5(4H)-yl]prop-2-en-1-one]	1280 nM	101 nM	82.9 nM
C=CC(=O)N1Cc2c(-c3ccnc4[nH]cc(C)c34)c(-c3ccc(F)cc3)nn2C[C@H]1C [Example 263, 1-[(6R)-2-(4-fluorophenyl)-6-methyl-3-(3-methyl-1H-pyrrolo[2,3-b]pyridin-4-yl)-6,7-dihydropyrazolo[1,5-a]pyrazin-5(4H)-yl]prop-2-en-1-one]	24.6 nM	81 nM	112 nM
Cc1c[nH]c2nccc(-c3c(-c4ccc(C(F)(F)F)cc4)nn4c3CN(C(=O)/C=C/CN(C)C)[C@H](C)C4)c12 [Example 266, (2E)-4-(dimethylamino)-1-[(6R)-6-methyl-3-(3-methyl-1H-pyrrolo[2,3-b]pyridin-4-yl)-2-[4-(trifluoromethyl)phenyl]-6,7-dihydropyrazolo[1,5-a]pyrazin-5(4H)-yl]but-2-en-1-one]	3580 nM	121 nM	462 nM
Cc1c[nH]c2nccc(-c3c(-c4ccc(F)cc4)nn4c3CN(C(=O)/C=C/CN(C)C)[C@H](C)C4)c12 [Example 269, (2E)-4-(dimethylamino)-1-[(6R)-2-(4-fluorophenyl)-6-methyl-3-(3-methyl-1H-pyrrolo[2,3-b]pyridin-4-yl)-6,7-dihydropyrazolo[1,5-a]pyrazin-5(4H)-yl]but-2-en-1-one]	38.2 nM	128 nM	138 nM
C=CC(=O)N1Cc2c(-c3ccncc3)c(-c3ccc(Cl)cc3F)nn2C[C@@H]1C [Example 270, 1-[(6S)-2-(4-chloro-2-fluorophenyl)-6-methyl-3-(pyridin-4-yl)-6,7-dihydropyrazolo[1,5-a]pyrazin-5(4H)-yl]prop-2-en-1-one]	1.03 nM	11.5 nM	0.216 nM
C=CC(=O)N1Cc2c(-c3ccncc3)c(-c3ccc(Cl)cc3F)nn2C[C@H]1C [Example 271, 1-[(6R)-2-(4-chloro-2-fluorophenyl)-6-methyl-3-(pyridin-4-yl)-6,7-dihydropyrazolo[1,5-a]pyrazin-5(4H)-yl]prop-2-en-1-one]	0.351 nM	225 nM	0.132 nM
C=CC(=O)N1CCn2nc(Nc3ccccc3)c(-c3ccncc3)c2C1 [Example 272, 1-[2-anilino-3-(pyridin-4-yl)-6,7-dihydropyrazolo[1,5-a]pyrazin-5(4H)-yl]prop-2-en-1-one]	10.4 nM	87.8 nM	2.35 nM
CN(C)C/C=C/C(=O)N1CCn2nc(Nc3ccccc3)c(-c3ccncc3)c2C1 [Example 273, (2E)-1-[2-anilino-3-(pyridin-4-yl)-6,7-dihydropyrazolo[1,5-a]pyrazin-5(4H)-yl]-4-(dimethylamino)but-2-en-1-one]	21.6 nM	531 nM	3.94 nM
C=CC(=O)N1Cc2c(-c3ccncc3)c(-c3ccc4sccc4c3)nn2C[C@@H]1C [Example 276, 1-[(6S)-2-(1-benzothiophen-5-yl)-6-methyl-3-(pyridin-4-yl)-6,7-dihydropyrazolo[1,5-a]pyrazin-5(4H)-yl]prop-2-en-1-one]	0.157 nM	6.22 nM	0.0909 nM
C=CC(=O)N1Cc2c(-c3ccncc3)c(-c3ccc4sccc4c3)nn2C[C@H]1C [Example 277, 1-[(6R)-2-(1-benzothiophen-5-yl)-6-methyl-3-(pyridin-4-yl)-6,7-dihydropyrazolo[1,5-a]pyrazin-5(4H)-yl]prop-2-en-1-one]	0.153 nM	2.77 nM	< 0.0725 nM and 0.0955 nM and 0.111 nM
